Source: the NIST ThermoML archive (doi:10.1021/je049571n)
± gives the expanded uncertainty stated by the source.

What was measured:
[1] = refractive index (Na D-line) (dimensionless); details: 101.33 kPa, Liquid, Standard Abbe refractometry
[2] = Liquid; for mass density: 101.33 kPa

| SMILES | refractive index ([1]; 293.2 K) | mass density ([2]; 298.2 K) | Normal boiling temperature [2] | refractive index ([1]; 298.2 K) | mass density ([2]; 293.2 K) |
| --- | --- | --- | --- | --- | --- |
| CC(=O)O [acetic acid] | 1.3719 ± 0.0012 | 1047.22 ± 0.28 kg/m3 | 118.1 ± 0.2 °C |  |  |
| COC(=O)CCCC(=O)OC [dimethyl pentanedioate] |  |  | 214.1 ± 0.2 °C | 1.4242 ± 0.0012 | 1087.74 ± 0.65 kg/m3 |
